The text below walks through data of patent US20150275187A1, “FURFURAL-RESISTANT GENE AND FURFURAL-RESISTANT STRAINS COMPRISING THE SAME” (KOREA INSTITUTE OF SCIENCE AND TECHNOLOGY, priority 2014, published 2015).

Structures are written as SMILES.

The subject of assay [1] is cg1310 (rolM, Maleylacetate reductase) mRNA. The assay is described as follows: Microarray gene expression depending on furfural concentration. Format: cell-based, Corynebacterium glutamicum. As to conditions: against wild type in medium not containing furfural. An excerpt: As a result, among the genes, which are expected to have similarity, cg1310 (SEQ ID No.: 2) showing increased expression at microarray is selected as the target gene. And, information about the selected target gene, and expression level of the target gene depending on the furfural concentration in the medium, which is obtained by analyzing gene expression pattern thereof depending on the furfural concentration using microarray, are shown in the following Table 1.
As a result of analysis, compared with the medium not containing the furfural, the mRNA expression level of the target gene is increased in the medium containing the furfural, and the mRNA expression level of the target gene is further increased when the furfural concentration is increased from 6.5 mM to 13 mM.
(§1) DNA Microarray is used as a method for analyzing gene expression depending on the furfural stress.

Assay [2] relates to cg3374 (cye1, Putative NADH-dependent flavin oxidoreductase) mRNA. Described as above. As to conditions: against wild type in medium not containing furfural. Format: cell-based, Corynebacterium glutamicum.
Text: as §1
(§2) Specifically, among genes corresponding to the module classified at http://www.coryneregnet.de/ of entire genes, and genes, whose corresponding protein names contain at least one of transport, permease and pump, genes showing increased expression level at all furfural concentrations are selected, and then, genes showing about 10 folds or more increased expression level at least one concentration are selected. And, among the selected genes, existing genes, which are known to response to stress, are excluded by literature search, and cg0310 (SEQ ID No.: 3), cg1661 (SEQ ID No.: 1), cg3374 (SEQ ID No.: 4) and cg3399 (SEQ ID No.: 5) are selected as the target gene. These are catalase, efflux pump in the cell membrane, oxidoreductase and permease-type genes. Then, information of the target genes selected by microarray, and expression levels of the target genes depending on the furfural concentration in the medium, which are obtained by analyzing gene expression pattern thereof using microarray, are shown in the following Table 2.
(§3) The gene expression levels of the above Table 2 show the relative mRNA expression levels of the target genes of the wild type strain grown in the medium containing the furfural, against the wild type strain grown without stress in the medium not containing the furfural. As a result of analysis, compared with the medium not containing the furfural, the mRNA expression levels of each target gene are increased in the medium containing the furfural, and the mRNA expression levels of the target genes are further increased as the furfural concentration is increased.

The subject of assay [3] is cg1661 (Arsenite efflux pump ACR3 or related permease) mRNA. The assay is described as above. Type of assay: cell-based, Corynebacterium glutamicum. The following applies: against wild type in medium not containing furfural.
Text: as §1, §2, §3

Assay [4] deals with cg0310 (katA, catalase) mRNA. The description is as above. Type of assay: cell-based, Corynebacterium glutamicum. As to conditions: against wild type in medium not containing furfural.
Text: as §1, §2, §3

The subject of assay [5] is cg3399 (Permease of the major facilitator superfamily) mRNA. Described as above. Format: cell-based, Corynebacterium glutamicum. The following applies: against wild type in medium not containing furfural.
Text: as §1, §2, §3

In assay [6] the test system is Corynebacterium glutamicum ATCC 13032. Nature of the assay: Growth inhibitory effect of furfural in wild type strain. Format: cell-based. The protocol:
In order to develop a furfural-resistant strain, first of all, Corynebacterium glutamicum is selected as a wild type, and then, growth inhibitory effect of furfural at Corynebacterium glutamicum wild type strain (wild type), which is Corynebacterium glutamicum ATCC 13032, depending on concentration, and concentrations of furfural and furfuryl alcohol in a culture solution depending on cell growth are confirmed.
Specifically, as the culture solution, 2% glucose as a carbon source is added to a minimal medium, CGXII medium, and furfural of 6.5 mM, 13 mM and 20 mM are added thereto, respectively, to compare growth speed with the case not adding the furfural. At this time, the composition of the CGXII medium is 20 g/L (NH4)2504, 5 g/L Urea, 1 g/L KH2PO4, 1 g/L K2HPO4, 0.25 g/L MgSO4.7H2O, 42 g/L MOPS, 10 mg/L CaCl2, 0.2 mg/L Biotin, 0.03 g/L Protecatechuic acid, Trace metal (10 mg/L FeSO4.7H2O, 10 mg/L MnSO4.H2O, 1 mg/L ZnSO4.7H2O, 0.2 mg/L CuSO4.7H2O, 0.02 mg/L NiCl2.6H2O). Culture is conducted at 30° C. after inoculating the cells (initial OD600=1) into the culture solution 50 mL in a 250 mL Erlenmeyer flask.

Setting [7] is: Furfural Conc. in Medium: 6.5 mM.
The mark [8] stands for this setting: Furfural Conc. in Medium: 13 mM.
The mark [9] stands for this setting: Furfural Conc. in Medium: 20 mM.

As to `O=Cc1ccco1` [furfural], the “Gene Expression Level (relative mRNA) cg1310” value in assay [1] (setting [7]) is listed as 1.476; in assay [1] (setting [8]) it was 2.872; in assay [1] (setting [9]) it was 2.183. The “Gene Expression Level (relative mRNA) cg3374” value in assay [2] (setting [7]) stood at 1.461; in assay [2] (setting [8]), 3.219; in assay [2] (setting [9]) it was 29.016. Also, the entries for the “Gene Expression Level (relative mRNA) cg1661” value in assay [3] (setting [7]), in assay [3] (setting [8]) and in assay [3] (setting [9]) were 7.240, 3.071 and 13.186, respectively. For the same compound, the “Gene Expression Level (relative mRNA) cg0310” value in assay [4] (setting [7]) amounted to 3.219; in assay [4] (setting [8]) it was 3.443; in assay [4] (setting [9]), 10.956. The “Gene Expression Level (relative mRNA) cg3399” value in assay [5] (setting [7]) is listed as 4.485; in assay [5] (setting [8]), 6.529; in assay [5] (setting [9]), 15.694. Also, in assay [6] (6.5 mM furfural, CGXII medium with 2% glucose, 30° C.), the “growth reduction compared with the medium not containing the furfural” value is not below 50%. Besides, in assay [6] (furfural 6.5, 13 and 20 mM in CGXII medium), the “growth speed of the strain” value is given as “becomes slow as the furfural concentration in the medium is increased”.
